# Measurements as given in patent publication US20210260010A1, “COMPOSITIONS AND METHODS FOR THE REDUCTION OR TREATMENT OF INFLAMMATION” (AXCELLA HEALTH INC., priority 2018, published 2021).
# Columns and labels:
# TNFα = assay: LPS-induced TNFα secretion in primary human monocyte-derived macrophages (ELISA); assay type: cell-based; set-up: TNFa Measurements Mean: unit not given here; details: for TNFa Measurements Mean: Donor 1, LPS 0.15 ng/mL; for TNFa Measurements Mean / Donor 2 TNFa Measurements Mean / Donor 3 TNFa Measurements Mean: baseline subtracted; for LPS-induced TNFα secretion: macrophages, 0.15 ng/mL LPS
# Procedure: Unpurified buffy coats (Research Blood Components) were carefully poured into 50 mL centrifuge tubes and diluted with room temperature Dulbecco's Phosphate Buffered Saline (dPBS) with Calcium and Magnesium (Gibco). Diluted buffy coats were further divided into four total 50 mL centrifuge tubes at 20 mL per tube. Lymphocyte Separation Medium (Corning) was carefully pipetted to the bottom of each centrifuge tube. Mixtures were centrifuged at 850× g for 32 minutes at 20° C. with 0 deceleration and acceleration.
# The PBMC layer was separated from other components after centrifugation and added to new 50 mL centrifuge tube containing 25 mL dPBS. Total volume was brought up to 50 mL with dPBS and centrifuged at 600×g for 10 minutes at 20° C. with acceleration of 9, deceleration of 5. Supernatant was carefully removed from cell pellets. The cell pellets were resuspended using 10 mL dPBS. Total volume was then brought up to 50 mL using dPBS and centrifuged at 450×g for 5 min at 20° C. with acceleration of 9, deceleration of 9. The supernatant removal and cell pellet resuspension was repeated again.
# The supernatant was then carefully removed from cell pellets. Cell pellets were resuspended in 10 mL dPBS without calcium or magnesium and filtered through a 70 uM cell strainer. The total PBMC number was determined using a Cellometer K2 automated cell counter. A total of 5E6 cells were saved for flow cytometric analysis. Remaining cells were centrifuged at 490×g for 5 minutes at 20° C. with acceleration of 9, deceleration of 9.
# CD14+ cells were selected using EasySep™ Human CD14 Positive Selection Kit II ([…] Technologies). Cells were resuspended in cold EasySep™ Buffer ([…] Technologies) at 1×10^8 cells/mL. A total of 100 uL/mL EasySep™ Human CD14 Positive Selection Cocktail II was added to the cell suspension, mixed, and incubated at room temperature for 10 minutes. A total of 100 uL/mL RapidSpheres were added to the mixture and incubated at room temperature for 3 minutes after mixing, then RoboSep buffer was added to bring up the total volume to 10 mL. The mixture in a 15 mL tube was placed in magnet and incubated at room temperature for 3 minutes. Supernatant was discarded and 10 mL fresh EasySep™ buffer was added to 15 mL tube. The addition of RoboSep buffer, mixing, and discarding of supernatant was repeated two more times.
# Negative and positive fractions were centrifuged at 490×g for 5 minutes at 20° C. with acceleration of 9, deceleration of 9, and resuspended in DMEM (Gibco) and 10% Heat Inactivated Fetal Bovine Serum (Atlanta Bio) and Penicillin/Streptomycin. Cells were counted and centrifuged again at 490× g for 5 minutes at 20° C. with acceleration of 9, deceleration of 9. After centrifugation, cell were resuspended in DMEM (Gibco) and 10% Heat Inactivated Fetal Bovine Serum (Atlanta Bio) and Penicillin/Streptomycin containing 500 U/mL […] and plated at 1-2×10^6 cells/mL on 10 cm tissue culture plates. Cells were kept in 37° C., 5% CO2 in between feedings/harvest.
# Cells were fed every 3-4 days by removing media and unattached cells, centrifuging at 490× g for 5 minutes at 20° C. with acceleration of 9, deceleration of 9, and resuspending in fresh DMEM (Gibco) and 10% Heat Inactivated Fetal Bovine Serum (Atlanta Bio) and Penicillin/Streptomycin containing GM-CSF. Resuspended cells were seeded back onto 10 cm tissue culture plates and incubated at 37° C., 5% CO2. Differentiated macrophages were used for subsequent experiments.
# Primary human PMBC derived macrophages were seeded on day 0 at 3.0E4 cells per well in 96-well microplates (ThermoFisher) in Dulbecco's Modified Eagle Medium (DMEM) (Gibco) supplemented with penicillin-streptomycin (Hyclone) and 10% heat inactivated fetal bovine serum (HI-FBS) (Atlanta Bio) and incubated overnight at 37° C., 5% CO2. On day 1, cells were washed once with 150 uL per well DPBS (Gibco) and treated with 75 uL of: • a. […]
# CCL18 = assay: IL-4 induced CCL18 secretion in primary human monocyte-derived macrophages (ELISA); assay type: cell-based; details: for Donor 1 CCL18 Measurements Mean / Donor 2 CCL18 Measurements Mean: relative to vehicle control; for CCL18 Measurements: Mean (fold change relative to vehicle control): IL-4 induced; for IL-4 induced CCL18 secretion (fold change relative to vehicle control): macrophages
# Procedure: Lymphocytes were purified from unpurified buffy coats (Research Blood Components) using Lymphocyte Separation Medium (Corning). After centrifugation, the PBMC layer was extracted and rinsed several times using Dulbecco's phosphate-buffered saline (DPBS; Gibco). After straining PBMCs through a 70 uM cell strainer, cells were resuspended and counted using a Cellometer K2 automated cell counter.
# CD14+ cells were selected using EasySep™ Human CD14 Positive Selection Kit II ([…] Technologies) according to manufacturer-supplied protocols. Following isolation CD14+ cells were seeded into 10 cm tissue culture plates and differentiated into macrophages using M-CSF (Peprotech).
# On day 0, primary human PBMC derived macrophages were seeded in Dulbecco's Modified Eagle Medium (DMEM) (Gibco) supplemented with penicillin-streptomycin (Hyclone) and 10% heat inactivated fetal bovine serum (HI-FBS) (Atlanta Bio) into 96-well microplates (ThermoFisher) and incubated overnight at 37° C., 5% CO2. On day 1, cells were washed once with DPBS and then treated with: • a. Amino acid free DMEM (US Biologicals) containing a defined custom amino acid concentration based on the mean physiological concentrations in blood based on values published in the Human Metabolome Database (HMDB), with 6 mM glucose, 1 mM sodium pyruvate, 10 mM HEPES, penicillin-streptomycin; or • b. The same medium described above with one amino acid or amino acid combination at various concentrations
# On day 2, cells were treated with the same mediums described above supplemented with recombinant human interleukin-4 (IL-4; Peprotech). Control wells were treated with tofacitinib (Tocris) and IL-4, PBS with IL-4, or phosphate buffered saline (PBS) alone.
# On day 3, the supernatant was collected and immediately frozen in −80° C. freezer. Cells were washed once with DPBS and viability was assessed using the WST-8 Cell Proliferation Cytotoxicity Assay (Dojindo) according to manufacturer-supplied protocol. Following the assay, cells were washed twice with PBS and fixed with 4% paraformaldehyde. Protein levels in supernatant samples were analyzed by ELISA for CCL18 using commercially available kits (R&D Systems) according to manufacturer-supplied protocols.
smiles,measurement,setting,value
"N=C(N)NCCC[C@H](N)C(=O)O [Arginine, L-Arginine]",TNFa Measurements Mean,TNFα; Conc. 109 μM (baseline),0
same,TNFa Measurements Mean,TNFα; Conc. 1088 μM,−24.33
same,TNFa Measurements Mean,TNFα; Conc. 2720 μM,5.12
same,TNFa Measurements Mean,TNFα; Conc. 5440 μM,62.06
same,Donor 2 TNFa Measurements Mean,"TNFα; Donor 2, Conc. 109 μM (baseline)",1.42E−14
same,Donor 2 TNFa Measurements Mean,"TNFα; Donor 2, Conc. 1088 μM",−12.7222
same,Donor 2 TNFa Measurements Mean,"TNFα; Donor 2, Conc. 2720 μM",−3.763
same,Donor 2 TNFa Measurements Mean,"TNFα; Donor 2, Conc. 5440 μM",−0.5738
same,Donor 3 TNFa Measurements Mean,"TNFα; Donor 3, Conc. 109 μM (baseline)",3.55E−15
same,Donor 3 TNFa Measurements Mean,"TNFα; Donor 3, Conc. 1088 μM",3.131
same,Donor 3 TNFa Measurements Mean,"TNFα; Donor 3, Conc. 2720 μM",−0.9669
same,Donor 3 TNFa Measurements Mean,"TNFα; Donor 3, Conc. 5440 μM",−1.767
same,Donor 1 CCL18 Measurements Mean,"CCL18; Donor 1, Conc. 109 μM",1.131 fold change
same,Donor 1 CCL18 Measurements Mean,"CCL18; Donor 1, Conc. 1088 μM",1.068 fold change
same,Donor 1 CCL18 Measurements Mean,"CCL18; Donor 1, Conc. 2720 μM",1.121 fold change
same,Donor 1 CCL18 Measurements Mean,"CCL18; Donor 1, Conc. 5440 μM",1.277 fold change
same,Donor 2 CCL18 Measurements Mean,"CCL18; Donor 2, Conc. 109 μM",0.9634 fold change
same,Donor 2 CCL18 Measurements Mean,"CCL18; Donor 2, Conc. 1088 μM",0.9846 fold change
same,Donor 2 CCL18 Measurements Mean,"CCL18; Donor 2, Conc. 2720 μM",1.031 fold change
same,Donor 2 CCL18 Measurements Mean,"CCL18; Donor 2, Conc. 5440 μM",1.089 fold change
same,CCL18 Measurements: Mean (fold change relative to vehicle control),"CCL18; Donor 3, Conc. 109 μM",1.138 fold change
same,CCL18 Measurements: Mean (fold change relative to vehicle control),"CCL18; Donor 3, Conc. 1088 μM",0.9131 fold change
same,CCL18 Measurements: Mean (fold change relative to vehicle control),"CCL18; Donor 3, Conc. 2720 μM",1.208 fold change
same,CCL18 Measurements: Mean (fold change relative to vehicle control),"CCL18; Donor 3, Conc. 5440 μM",1.206 fold change
"NC(=O)CC[C@H](N)C(=O)O [Glutamine, L-Glutamine]",TNFa Measurements Mean,TNFα; Conc. 749 μM (baseline),0
same,TNFa Measurements Mean,TNFα; Conc. 3747 μM,−45.7
same,TNFa Measurements Mean,TNFα; Conc. 11242 μM,−65.24
same,TNFa Measurements Mean,TNFα; Conc. 22484 μM,−103.07
same,Donor 2 TNFa Measurements Mean,"TNFα; Donor 2, Conc. 749 μM (baseline)",−9.5E−15
same,Donor 2 TNFa Measurements Mean,"TNFα; Donor 2, Conc. 3747 μM",9.338
same,Donor 2 TNFa Measurements Mean,"TNFα; Donor 2, Conc. 11242 μM",20.04
same,Donor 2 TNFa Measurements Mean,"TNFα; Donor 2, Conc. 22484 μM",11.5
same,Donor 3 TNFa Measurements Mean,"TNFα; Donor 3, Conc. 749 μM (baseline)",0
same,Donor 3 TNFa Measurements Mean,"TNFα; Donor 3, Conc. 3747 μM",1.936
same,Donor 3 TNFa Measurements Mean,"TNFα; Donor 3, Conc. 11242 μM",18
same,Donor 3 TNFa Measurements Mean,"TNFα; Donor 3, Conc. 22484 μM",29.14
same,LPS-induced TNFα secretion,TNFα; Donor 2,increased
same,LPS-induced TNFα secretion,TNFα; Donor 3,increased
same,Donor 1 CCL18 Measurements Mean,"CCL18; Donor 1, Conc. 749 μM",1.382 fold change
same,Donor 1 CCL18 Measurements Mean,"CCL18; Donor 1, Conc. 3747 μM",1.492 fold change
same,Donor 1 CCL18 Measurements Mean,"CCL18; Donor 1, Conc. 11242 μM",1.645 fold change
same,Donor 1 CCL18 Measurements Mean,"CCL18; Donor 1, Conc. 22484 μM",1.992 fold change
same,Donor 2 CCL18 Measurements Mean,"CCL18; Donor 2, Conc. 749 μM",1.4 fold change
same,Donor 2 CCL18 Measurements Mean,"CCL18; Donor 2, Conc. 3747 μM",1.559 fold change
same,Donor 2 CCL18 Measurements Mean,"CCL18; Donor 2, Conc. 11242 μM",1.857 fold change
same,Donor 2 CCL18 Measurements Mean,"CCL18; Donor 2, Conc. 22484 μM",2.219 fold change
same,CCL18 Measurements: Mean (fold change relative to vehicle control),"CCL18; Donor 3, Conc. 749 μM",1.56 fold change
same,CCL18 Measurements: Mean (fold change relative to vehicle control),"CCL18; Donor 3, Conc. 3747 μM",1.606 fold change
same,CCL18 Measurements: Mean (fold change relative to vehicle control),"CCL18; Donor 3, Conc. 11242 μM",2.428 fold change
same,CCL18 Measurements: Mean (fold change relative to vehicle control),"CCL18; Donor 3, Conc. 22484 μM",2.33 fold change
same,IL-4 induced CCL18 secretion (fold change relative to vehicle control),CCL18; Donor 1,significantly increased
same,IL-4 induced CCL18 secretion (fold change relative to vehicle control),CCL18; Donor 2,significantly increased
same,IL-4 induced CCL18 secretion (fold change relative to vehicle control),CCL18; Donor 3,significantly increased
